These are literature values, as cited in patent US20240189229A1, “LIQUID PHARMACEUTICAL COMPOSITIONS OF BACLOFEN FOR ORAL ADMINISTRATION” (ANI Pharmaceuticals, Inc., priority 2022, published 2024).

Where two headings read alike, the source gives them in different places.

As for `NCC(CC(=O)O)c1ccc(Cl)cc1` (centres unmarked) [Baclofen, 4-amino-3-(4-chlorophenyl)-butanoic acid], the “Concentration of baclofen obtained by dissolving” value (aqueous solution of 0.1N HCl (Ahuja 1985)) is given as “greater than 20 mg/mL” and the “Concentration of baclofen obtained by dissolving” value (aqueous solution of 0.1N NaOH (Ahuja 1985)) is “greater than 20 mg/mL”. Further, the Solubility in chloroform result (chloroform) is “insoluble”. Further, the Solubility in methanol result (methanol) is recorded as “very slightly soluble”. Moreover, the Solubility in water entry (water) is recorded as “slightly soluble”.
